Test results from BindingDB's records for patent US12435061 (Kamari Pharma, 2025).

Target: T1, Transient receptor potential cation channel subfamily V member 3 (Homo sapiens, UniProt Q8NET8)
T1 sequence (Q8NET8 whole entry): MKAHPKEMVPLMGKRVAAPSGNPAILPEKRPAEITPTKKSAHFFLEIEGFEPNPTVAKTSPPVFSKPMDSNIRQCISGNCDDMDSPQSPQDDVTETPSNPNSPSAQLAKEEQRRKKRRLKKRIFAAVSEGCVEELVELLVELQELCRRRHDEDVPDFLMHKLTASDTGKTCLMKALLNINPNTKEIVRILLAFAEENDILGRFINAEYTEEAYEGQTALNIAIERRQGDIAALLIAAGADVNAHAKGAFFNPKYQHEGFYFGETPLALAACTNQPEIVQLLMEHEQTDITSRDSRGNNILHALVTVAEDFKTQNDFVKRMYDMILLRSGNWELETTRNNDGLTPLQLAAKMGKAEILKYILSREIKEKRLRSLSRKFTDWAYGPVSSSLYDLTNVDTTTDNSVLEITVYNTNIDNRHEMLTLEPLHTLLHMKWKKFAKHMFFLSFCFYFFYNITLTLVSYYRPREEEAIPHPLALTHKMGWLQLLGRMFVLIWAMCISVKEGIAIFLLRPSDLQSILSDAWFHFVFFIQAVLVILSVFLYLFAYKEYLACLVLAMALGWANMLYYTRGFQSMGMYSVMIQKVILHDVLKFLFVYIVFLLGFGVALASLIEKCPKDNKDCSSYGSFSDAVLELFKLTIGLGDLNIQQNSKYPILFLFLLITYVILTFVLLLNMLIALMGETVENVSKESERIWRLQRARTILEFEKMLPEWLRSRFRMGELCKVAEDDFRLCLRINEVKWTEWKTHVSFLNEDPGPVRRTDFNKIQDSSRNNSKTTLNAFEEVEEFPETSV
Test: Patch Clamp Experiments
Experimental: TRPV3 cells were induced 20-48 hours, removed from growth plates, and replated at low density (to attain good single-cell physical separation) on glass coverslips for measurement. In some cases, cells were grown in low density overnight on glass coverslips. Patch clamp recordings were made in the whole-cell mode with a holding potential of −40 mV. Every 5 seconds, a voltage ramp was applied from −120 to +100 mV, 400 ms in duration. Currents elicited were quantified at −80 mV and +80 mV. […] External solution was Ringer's solution described above.

SMILES	IC50
O=[N+](O)c1cc(-c2ccccc2)ccc1N1CC[C@H](Oc2ccc3cc(Cl)ccc3n2)C1 [US12435061, Compound 1-70]	> 3.2 µM
CCc1ccccc1Oc1ccc(N2CC[C@H](Oc3ccc(C(F)(F)F)cn3)C2)c(CO)n1 [US12435061, Compound 1-212]	> 3.2 µM
